Laboratory results: patent publication US11111251B2, “Positive allosteric modulators of the muscarinic acetylcholine receptor M1” (Vanderbilt University, priority 2016, dated 2021)

Target: T1, human mAChR M1 (Homo sapiens, UniProt P11229)
T1 sequence (P11229 1-460): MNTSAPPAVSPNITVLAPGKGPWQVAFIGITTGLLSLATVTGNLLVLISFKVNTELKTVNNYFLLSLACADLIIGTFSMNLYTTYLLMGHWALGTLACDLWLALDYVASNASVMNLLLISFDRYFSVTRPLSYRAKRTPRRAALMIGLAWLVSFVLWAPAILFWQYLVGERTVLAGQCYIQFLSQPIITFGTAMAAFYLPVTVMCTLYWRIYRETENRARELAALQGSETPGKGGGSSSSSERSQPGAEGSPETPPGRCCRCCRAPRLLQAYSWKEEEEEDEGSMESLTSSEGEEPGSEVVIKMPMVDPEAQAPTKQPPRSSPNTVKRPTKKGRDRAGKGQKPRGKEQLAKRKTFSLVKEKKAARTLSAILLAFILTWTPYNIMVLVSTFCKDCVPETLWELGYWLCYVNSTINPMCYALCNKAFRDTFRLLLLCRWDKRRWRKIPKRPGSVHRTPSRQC
Test: mAChR M1 cell-based functional assay: calcium mobilization, positive allosteric modulator mode (increase in EC20 acetylcholine response)
Details: Table 2, human M1; for EC50: read-out: Human M1 EC50; for Emax: read-out: Human M1 Emax (%)
Outline: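 PAM potency reflects the concentration-dependent increase in calcium response to an EC20 acetylcholine challenge, given 144 s into a 300 s read after compound addition at 4 s (EC80 follows at 230 s). Cells were hM1-expressing CHO-K1, loaded 50 min with Fluo-4 AM. Curves used 11 points at 1:3 dilutions and four-parameter logistic fitting.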

Row | EC50 [nM] | Emax [%] | Compound
1 | > 10000 | 52.9 | O=C(c1cc(Cc2ccc(-n3cccn3)cc2)c2sccc2n1)N1CCNCC1 [Compound 83, piperazin-1-yl-[7-[(4-pyrazol-1-ylphenyl)methyl]thieno[3,2-b]pyridin-5-yl]methanone]
2 | > 10000 | 24.4 | O=C(c1cc(Cc2ccc(-n3cccn3)cc2)c2sccc2n1)N1CCN(CCO)CC1 [Compound 84, [4-(2-hydroxyethyl)piperazin-1-yl]-[7-[(4-pyrazol-1-ylphenyl)methyl]thieno[3,2-b]pyridin-5-yl]methanone]
3 | 80.1 | 87.9 | Cc1ccc(C(F)c2cc(C(=O)N[C@@H]3CCCC[C@H]3O)nc3ccsc23)cn1 (stereo partly drawn) [Compound 85, 7-[fluoro-(6-methyl-3-pyridyl)methyl]-N-[(1R,2R)-2-hydroxycyclohexyl]thieno[3,2-b]pyridine-5-carboxamide]
4 | 255 | 87.7 | CCOC(c1ccc(C)nc1)c1cc(C(=O)N[C@@H]2CCCC[C@H]2O)nc2ccsc12 (stereo partly drawn) [Compound 86, 7-[ethoxy-(6-methyl-3-pyridyl)methyl]-N-[(1R,2R)-2-hydroxycyclohexyl]thieno[3,2-b]pyridine-5-carboxamide]
5 | 3130 | 84.9 | O=C(N[C@H]1CC[C@@H]1O)c1cc(Cc2ccc(C(F)(F)F)nc2)c2sccc2n1 [Compound 87, N-[(1S,2S)-2-hydroxycyclobutyl]-7-[[6-(trifluoromethyl)-3-pyridyl]methyl]thieno[3,2-b]pyridine-5-carboxamide]
6 | 503 | 90.5 | O=C(N[C@@H]1CCC[C@H]1O)c1cc(Cc2ccc(C(F)(F)F)nc2)c2sccc2n1 [Compound 88, N-[(1R,2R)-2-hydroxycyclopentyl]-7-[[6-(trifluoromethyl)-3-pyridyl]methyl]thieno[3,2-b]pyridine-5-carboxamide]
7 | 1730 | 71.8 | O=C(NC1CCOCC1)c1cc(Cc2ccc(C(F)(F)F)nc2)c2sccc2n1 [Compound 89, N-tetrahydropyran-4-yl-7-[[6-(trifluoromethyl)-3-pyridyl]methyl]thieno[3,2-b]pyridine-5-carboxamide]
8 | 154 | 90.7 | O=C(N[C@@H]1CCCC[C@H]1O)c1cc(Cc2ccc(C(F)(F)F)nc2)c2sccc2n1 [Compound 90, N-[(1R,2R)-2-hydroxycyclohexyl]-7-[[6-(trifluoromethyl)-3-pyridyl]methyl]thieno[3,2-b]pyridine-5-carboxamide]
9 | 73.8 | 87.9 | O=C(N[C@@H]1CCOC[C@H]1O)c1cc(Cc2ccc(C(F)(F)F)nc2)c2sccc2n1 [Compound 91, N-[(3S,4R)-3-hydroxytetrahydropyran-4-yl]-7-[[6-(trifluoromethyl)-3-pyridyl]methyl]thieno[3,2-b]pyridine-5-carboxamide]
10 | > 10000 | 66.8 | O=C(N[C@@H]1COCC[C@H]1O)c1cc(Cc2ccc(C(F)(F)F)nc2)c2sccc2n1 [Compound 92, N-[(3R,4R)-4-hydroxytetrahydropyran-3-yl]-7-[[6-(trifluoromethyl)-3-pyridyl]methyl]thieno[3,2-b]pyridine-5-carboxamide]
11 | 6720 | 70.3 | CO[C@@H]1CCCC[C@H]1NC(=O)c1cc(Cc2ccc(C(F)(F)F)nc2)c2sccc2n1 [Compound 93, N-[(1R,2R)-2-methoxycyclohexyl]-7-[[6-(trifluoromethyl)-3-pyridyl]methyl]thieno[3,2-b]pyridine-5-carboxamide]
12 | 1250 | 84.6 | O=C(N[C@@H]1CCCCC[C@H]1O)c1cc(Cc2ccc(C(F)(F)F)nc2)c2sccc2n1 [Compound 94]
13 | 3130 | 34.2 | O=C(NC12CC3CC(CC(O)(C3)C1)C2)c1cc(Cc2ccc(C(F)(F)F)nc2)c2sccc2n1 [Compound 95, N-(3-hydroxy-1-adamantyl)-7-[[6-(trifluoromethyl)-3-pyridyl]methyl]thieno[3,2-b]pyridine-5-carboxamide]
14 | > 10000 | 43.6 | O=C(NC1C2CC3C[C@H]1CC(O)(C3)C2)c1cc(Cc2ccc(C(F)(F)F)nc2)c2sccc2n1 (stereo partly drawn) [Compound 96, N-[(1S)-5-hydroxy-2-adamantyl]-7-[[6-(trifluoromethyl)-3-pyridyl]methyl]thieno[3,2-b]pyridine-5-carboxamide]
15 | > 10000 | 75.2 | O=C(NC1CCCNC1=O)c1cc(Cc2ccc(C(F)(F)F)nc2)c2sccc2n1 (stereo not drawn) [Compound 97, N-(2-oxo-3-piperidyl)-7-[[6-(trifluoromethyl)-3-pyridyl]methyl]thieno[3,2-b]pyridine-5-carboxamide]
16 | 6000 | 66.6 | O=C(NC1CCCCNC1=O)c1cc(Cc2ccc(C(F)(F)F)nc2)c2sccc2n1 (stereo not drawn) [Compound 98, N-(2-oxoazepan-3-yl)-7-[[6-(trifluoromethyl)-3-pyridyl]methyl]thieno[3,2-b]pyridine-5-carboxamide]
17 | 7300 | 77.7 | Cc1ccc(Cc2cc(C(=O)N[C@H]3CC[C@@H]3O)nc3c(C)csc23)cn1 [Compound 99]

Row | EC50 [nM] | Emax [%] | Compound
18 | 654 | 87.5 | Cc1ccc(Cc2cc(C(=O)N[C@@H]3CCC[C@H]3O)nc3c(C)csc23)cn1 [Compound 100]
19 | 4960 | 75.7 | Cc1ccc(Cc2cc(C(=O)NC3CCCCC3)nc3c(C)csc23)cn1 [Compound 101, N-cyclohexyl-3-methyl-7-[(6-methyl-3-pyridyl)methyl]thieno[3,2-b]pyridine-5-carboxamide]
20 | 2700 | 82.5 | Cc1ccc(Cc2cc(C(=O)NC3CCOCC3)nc3c(C)csc23)cn1 [Compound 102, 3-methyl-7-[(6-methyl-3-pyridyl)methyl]-N-tetrahydropyran-4-yl-thieno[3,2-b]pyridine-5-carboxamide]
21 | 233 | 89.3 | Cc1ccc(Cc2cc(C(=O)N[C@@H]3CCCC[C@H]3O)nc3c(C)csc23)cn1 [Compound 103, N-[(1R,2R)-2-hydroxycyclohexyl]-3-methyl-7-[(6-methyl-3-pyridyl)methyl]thieno[3,2-b]pyridine-5-carboxamide]
22 | 164 | 86.8 | Cc1ccc(Cc2cc(C(=O)N[C@@H]3CCOC[C@H]3O)nc3c(C)csc23)cn1 [Compound 104]
23 | 825 | 87.7 | Cc1ccc(Cc2cc(C(=O)N[C@@H]3COCC[C@H]3O)nc3c(C)csc23)cn1 [Compound 105]
24 | 2200 | 82.1 | CO[C@@H]1CCCC[C@H]1NC(=O)c1cc(Cc2ccc(C)nc2)c2scc(C)c2n1 [Compound 106, N-[(1R,2R)-2-methoxycyclohexyl]-3-methyl-7-[(6-methyl-3-pyridyl)methyl]thieno[3,2-b]pyridine-5-carboxamide]
25 | 474 | 88.5 | Cc1ccc(Cc2cc(C(=O)N[C@@H]3CCCCC[C@H]3O)nc3c(C)csc23)cn1 [Compound 107]
26 | 5270 | 48.4 | Cc1ccc(Cc2cc(C(=O)NC34CC5CC(CC(O)(C5)C3)C4)nc3c(C)csc23)cn1 [Compound 108, N-(3-hydroxy-1-adamantyl)-3-methyl-7-[(6-methyl-3-pyridyl)methyl]thieno[3,2-b]pyridine-5-carboxamide]
27 | 3250 | 54.6 | Cc1ccc(Cc2cc(C(=O)NC3C4CC5C[C@H]3CC(O)(C5)C4)nc3c(C)csc23)cn1 (stereo partly drawn) [Compound 109, N-[(1S)-5-hydroxy-2-adamantyl]-3-methyl-7-[(6-methyl-3-pyridyl)methyl]thieno[3,2-b]pyridine-5-carboxamide]
28 | 5060 | 71 | Cc1ccc(Cc2cc(C(=O)NC3CCCNC3=O)nc3c(C)csc23)cn1 (stereo not drawn) [Compound 110, 3-methyl-7-[(6-methyl-3-pyridyl)methyl]-N-(2-oxo-3-piperidyl)thieno[3,2-b]pyridine-5-carboxamide]
29 | 2400 | 72.5 | Cc1ccc(Cc2cc(C(=O)NC3CCCCNC3=O)nc3c(C)csc23)cn1 (stereo not drawn) [Compound 111, 3-methyl-7-[(6-methyl-3-pyridyl)methyl]-N-(2-oxoazepan-3-yl)thieno[3,2-b]pyridine-5-carboxamide]
30 | 5820 | 36.7 | Cc1ccc(Cc2cc(C(=O)NC3CCN(C)CC3)nc3c(C)csc23)cn1 [Compound 112, 3-methyl-N-(1-methyl-4-piperidyl)-7-[(6-methyl-3-pyridyl)methyl]thieno[3,2-b]pyridine-5-carboxamide]
31 | 985 | 83.8 | Cc1csc2c(Cc3ccc(-n4cccn4)cc3)cc(C(=O)N[C@H]3CC[C@@H]3O)nc12 [Compound 113, N-[(1S,2S)-2-hydroxycyclobutyl]-3-methyl-7-[(4-pyrazol-1-ylphenyl)methyl]thieno[3,2-b]pyridine-5-carboxamide]
32 | 562 | 84.5 | Cc1csc2c(Cc3ccc(-n4cccn4)cc3)cc(C(=O)N[C@@H]3CCC[C@H]3O)nc12 [Compound 114, N-[(1R,2R)-2-hydroxycyclopentyl]-3-methyl-7-[(4-pyrazol-1-ylphenyl)methyl]thieno[3,2-b]pyridine-5-carboxamide]
33 | 1050 | 86.2 | Cc1csc2c(Cc3ccc(-n4cccn4)cc3)cc(C(=O)NC3CCOCC3)nc12 [Compound 115, 3-methyl-7-[(4-pyrazol-1-ylphenyl)methyl]-N-tetrahydropyran-4-yl-thieno[3,2-b]pyridine-5-carboxamide]
